Where two headings read alike, the source gives them in different places.
What was measured:
Format in all cases: cell-based
[1] = molecular target: T1, RhoJ PAK interaction (Homo sapiens, UniProt Q9H4E5); test: Cdc42 activation assay (PAK1 PBD bead pull-down, immunoblot); conditions: cell lysates from WM3248 cells, PAK coupled beads, FIG. 2
T1 construct: host or cells: WM3248 cells
Method: A Cdc42 activation assay was performed according the manufacturer's protocol (Cell Biolabs, San Diego, CA). Briefly, cells treated with the inhibitor were lysed and either loaded with GDP or GTPyS. Agarose beads conjugated with the PAK1 PBD domain pulled down Cdc42, Rac1, or RhoJ only when GTP-bound. Lysates were then immunoblotted with indicated Abs. Results are illustrated in FIG. 2. […] Briefly, cells were treated with compound 1 (ARN12405) and cell lysates were prepared and incubated with PAK coupled beads. Immunoprecipitated proteins were subjected to SDS PAGE and immunoblotted with a (A) RhoJ antibody, (B) Cdc42 antibody, (C) Rac1 antibody, (D) Cells were treated with one of a panel of RhoJ interaction inhibitors at a concentration of 10 μm or 50 μm (see FIG. 2, panels A-D). Lysates were prepared, incubated with PAK coupled beads, and immunoprecipitated proteins were immunoblotted with a RhoJ antibody.

[2] = test system: WM3248 melanoma cells; test: Flow cytometric analyses for apoptosis (Annexin V and PI); conditions: 24 hours, FIG. 1
Method: Approximately 1×10^6 melanoma cells treated with inhibitors for 24 hours and were then trypsinized and washed with PBS, the single-cell suspensions were incubated with Alexa Fluor-Annexin V and propidium iodide (PI) (V13245; Invitrogen) per the manufacturer's protocol and were subjected to flow cytometric analysis. In all cases, cell debris was gated out on the basis of forward scatter and side scatter analysis. Data was analyzed using FlowJo (Ashland, OR). Results are illustrated in FIG. 1, wherein WM3248 melanoma cells were treated with the indicated doses of compound 1 (ARN12405) and apoptosis was measured by flow cytometry using Annexin V and PI.

[3] = test system: melanoma cells; test: Cell viability assay (Cell Titer-Glo), inhibitor alone or with Cisplatin
Method: Cells were seeded at 10,000 cells/well in 96-well plates and incubated for 24 h at 37° C. with 5% CO2. […] The cell viability was determined using the Cell Titer-Glo luminescent cell viability assay kit (Promega, Madison, WI), according to the manufacturer's instructions. Luminescence was measured using a DTX 800 microplate reader (Coulter). The half-maximal inhibitory concentration (IC50) values were calculated using the GraphPad Prism software. The assay was done by conducting 3 independent experiments.

[4] = inhibitor (1.25-50 μM) with Cisplatin at 20 μM, 24 hours, Cell Titer-Glo, 3 independent experiments, read-out: IC50 (CisPt)

T1 sequence (Q9H4E5 1-211 limits assumed): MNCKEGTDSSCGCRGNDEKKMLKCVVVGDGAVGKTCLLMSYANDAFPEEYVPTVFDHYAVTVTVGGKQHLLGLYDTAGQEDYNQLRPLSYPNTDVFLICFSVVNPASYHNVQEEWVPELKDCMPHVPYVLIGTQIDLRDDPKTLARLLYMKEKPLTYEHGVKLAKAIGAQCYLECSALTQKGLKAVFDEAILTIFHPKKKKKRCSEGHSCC

Row | IC50 [3, 4] [µM] | SMILES | further results
1 | 11.5 | Clc1ccc(Nc2cc(-c3cccnc3)nc(C3CCCNC3)n2)cc1 (stereo not shown) [Compound 2] | –
2 | 38.2 | Clc1ccc(Nc2cc(-c3ccccn3)nc(C3CCCNC3)n2)cc1 (stereo not shown) [Compound 3] | –
3 | 7 | Clc1ccc(Nc2cc(-c3ccccc3)nc(C3CCCNC3)n2)cc1 (stereo not shown) [Compound 4] | –
4 | 17 | COc1ccc(-c2cc(Nc3ccc(Cl)cc3)nc(C3CCCNC3)n2)cc1 (stereo not shown) [Compound 6] | –
5 | 32 | Fc1ccc(-c2cc(Nc3ccccc3)nc(C3CCCNC3)n2)cc1 (stereo not shown) [Compound 7] | –
6 | > 50 | COc1ccc(Nc2cc(-c3ccccc3)nc(C3CCCNC3)n2)cc1 (stereo not shown) [Compound 9, N-(4-methoxyphenyl)-6-phenyl-2-(3-piperidyl)pyrimidin-4-amine] | IC50 ([3]; 24 h, read-out: IC50 (alone)): > 50 µM
7 | 36.7 | COc1ccc(Nc2cc(-c3ccccc3)nc(C3CCNCC3)n2)cc1 [Compound 13, N-(4-methoxyphenyl)-6-phenyl-2-(4-piperidyl)pyrimidin-4-amine] | –

Further lines, the compound ahead of its results:

Row | SMILES | IC50 [3, 4] [µM] | further results
8 | Clc1ccc(Nc2cc(-c3ccncc3)nc(C3CCCNC3)n2)cc1 (stereo not shown) [Compound 1] | 12.8 | RhoJ PAK interaction in cell lysates (SDS PAGE and immunoblotting) [1]: block of RhoJ PAK interaction; apoptosis measured by flow cytometry using AnnexinV and PI [2]: apoptosis induced
9 | Clc1cccc(Nc2cc(-c3ccncc3)nc(C3CCCNC3)n2)c1 (stereo not shown) [Compound 5] | 42.3 | –
10 | CN(C)c1ccc(Nc2cc(-c3ccccc3)nc(C3CCCNC3)n2)cc1 (stereo not shown) [Compound 8, N1,N1-dimethyl-N4-[6-phenyl-2-(3-piperidyl)pyrimidin-4-yl]benzene-1,4-diamine] | 31.4 | –
11 | CN(C)c1cccc(Nc2cc(-c3ccccc3)nc(C3CCCNC3)n2)c1 (stereo not shown) [Compound 10, N3,N3-dimethyl-N1-[6-phenyl-2-(3-piperidyl)pyrimidin-4-yl]benzene-1,3-diamine] | – | IC50 ([3]; 24 h, read-out: IC50 (alone)): 45 µM
12 | COc1cccc(Nc2cc(-c3ccccc3)nc(C3CCCNC3)n2)c1 (stereo not shown) [Compound 11, N-(3-methoxyphenyl)-6-phenyl-2-(3-piperidyl)pyrimidin-4-amine] | 27.8 | –
13 | CN(C)c1ccc(Nc2cc(-c3ccccc3)nc(C3CCNCC3)n2)cc1 [Compound 12, N4,N4-dimethyl-N1-[6-phenyl-2-(4-piperidyl)pyrimidin-4-yl]benzene-1,4-diamine] | – | IC50 ([3]; 24 h, read-out: IC50 (CisPt)): 86.3 µM
14 | CN(C)c1cccc(Nc2cc(-c3ccccc3)nc(C3CCNCC3)n2)c1 [Compound 14, N3,N3-dimethyl-N1-[6-phenyl-2-(4-piperidyl)pyrimidin-4-yl]benzene-1,3-diamine] | 17.2 | –
15 | COc1cccc(Nc2cc(-c3ccccc3)nc(C3CCNCC3)n2)c1 [Compound 15, N-(3-methoxyphenyl)-6-phenyl-2-(4-piperidyl)pyrimidin-4-amine] | 22.2 | –
16 | CN(C)c1ccc(Nc2cc(-c3ccccc3)nc(C3CCOCC3)n2)cc1 [Compound 16, N4,N4-dimethyl-N1-(6-phenyl-2-tetrahydropyran-4-yl-pyrimidin-4-yl)benzene-1,4-diamine] | > 50 | IC50 ([3]; 24 h, read-out: IC50 (alone)): > 50 µM
17 | COc1ccc(Nc2cc(-c3ccccc3)nc(C3CCOCC3)n2)cc1 [Compound 17, N-(4-methoxyphenyl)-6-phenyl-2-tetrahydropyran-4-yl-pyrimidin-4-amine] | > 50 | IC50 ([3]; 24 h, read-out: IC50 (alone)): > 50 µM

From patent publication US12503456B2, “Substituted pyrimidines and 1,3,5-triazines as RHOJ inhibitors” (Fondazione Istituto Italiano Di Tecnologia, priority 2017, dated 2025)
